# Experimental data from patent US20040033902A1, “Diphenyl ehter induction systemic resistance in plants” (priority 2002, published 2004).
# Experiments:
# [1] = system: snapped cotyledons of Williams variety soybean; assay: Snapped cotyledon assay, isoflavone and glyceollin induction, HPLC (Example 4); format: cell-based; conditions: 7 day old Williams soybean, average of two experiments; for Glyceollin Induction: 48 h, tested 10 uM to 1 mM alone and with 30 ug/ml glucan elicitor from Phytophthora sojae, concentration not given; for Total Isoflavone Induction: 48 h constant light, tested 10 uM to 1 mM, concentration of the printed value not stated, standard error less than 15%
# Description: The snapped cotyledon assay is a minimal wound assay used to investigate the effects of test compounds in a non-primed background. The assay is performed by snapping cotyledons in two and placing the petiole side down in 0.5% water agar. Ten snapped cotyledons are used per treatment, and the subepidermal cells exposed by snapping are treated with glucan defense elicitor and/or the effector (i.e., diphenyl ether) being examined. The cotyledons are incubated in the light for 48 h as in the cut cotyledon assay. Both proximal (first cell layer) and distal (second and third cell layers) are harvested for analysis by HPLC (see below). Full details of this assay can be found in the publication: Graham, T. L. and Graham, M. Y. 1996. Signaling in soybean phenylpropanoid responses: dissection of primary, secondary and conditioning effects of light, wounding and elicitor treatments. Plant Physiol. 110:1123-1133.
# The snapped cotyledon assay is “naive.” That is, it is not pre-disposed or primed for competency for the elicitation of phytoalexin glyceollin in response to the glucan elicitor. Thus, treatment with the glucan elicitor induces the formation of the isoflavones daidzein and genistein, but very little glyceollin. This is an excellent assay to study the effects of a chemical treatment on isoflavone metabolism by itself or in combination with the glucan. In the absence of the glucan, it gives an excellent picture of the effects of the compound alone on isoflavone metabolism. In the presence of the glucan, it tells us if the test compound can induce elicitation competency for the glyceollin response to the glucan.
# High performance liquid chromatography (HPLC) is the method of choice for determining the levels of isoflavone defense compounds in soybean. With a single HPLC analysis, one gets a complete and quantitative profile of up to 50 or more aromatic compounds, including all the isoflavones and their conjugates and the phytoalexins, including glyceollin. As little as 20 mg of plant tissue is needed and the method can be readily applied to cotyledon, leaf or any soybean tissue. This analytical method allows us to determine the nmoles/g of each metabolite, which can then readily be processed to compare the percent increase or decrease of a given metabolite in comparison to either water or glucan-treated control tissues. Routinely, tissues are extracted in 80% ethanol and subjected to water/acetonitrile gradient elution from a C18 reverse phase HPLC column. Full details of this procedure can be found in the publication: Graham, T. L. 1991. A Rapid, High Resolution High Performance Liquid Chromatography Profiling Procedure for Plant and Microbial Aromatic Secondary Metabolites. Plant Physiol. 95:584-593. […]
# [2] = system: cut cotyledons (Williams cotyledons); assay: Cut cotyledon assay, isoflavones (Williams cotyledons); format: cell-based, soybean; conditions: 50-500 uM
# Description: The cut cotyledon assay is used to investigate both the ability of a compound (effector) to activate basal elicitation competency in plants, and to evaluate the ability of a secondary compound (elicitor) to enhance glyceollin elicitation competency in plants in which the isoflavone pools were “loaded” by the action of the effector.
# The level of isoflavones in the cotyledon tissues are measured after the addition of different diphenyl ethers to determine the effectiveness of each in inducing the basal production of isoflavones in cotyledon tissues (effector studies). In the elicitor studies, the addition of diphenyl ether first “primes” the cut cotyledon. […] Thus, the ability of a compound to enhance glyceollin elicitation competency by “loading” the isoflavone pools can also be measured.
# Cotyledons from 7-8 day old soybean seedlings are removed from the plant and cut on the lower surface to expose subepidermal tissues. […] Tissues are analyzed by HPLC as noted below. […]
# High performance liquid chromatography (HPLC) is the method of choice for determining the levels of isoflavone defense compounds in soybean. With a single HPLC analysis, one gets a complete and quantitative profile of up to 50 or more aromatic compounds, including all the isoflavones and their conjugates and the phytoalexins, including glyceollin. […]
SMILES,Glyceollin Induction [1],Total Isoflavone Induction [1],range of increase of isoflavones over the concentration range [2]
"O=C(O)c1cc(Oc2ccc(C(F)(F)F)cc2Cl)ccc1[N+](=O)[O-] [Acifluorfen, acifluorfen]",+122%,+56%,
"CS(=O)(=O)NC(=O)c1cc(Oc2ccc(C(F)(F)F)cc2Cl)ccc1[N+](=O)[O-] [Fomesafen, fomesafen]",+233%,+85%,
N[C@@H](Cc1cc(I)c(Oc2cc(I)c(O)c(I)c2)c(I)c1)C(=O)O [thyroxine],,,20-40%
